Source: patent US20230102223A1, “PHARMACEUTICAL COMPOSITIONS WITH ANTIFLAVIVIRAL ACTIVITY” (HEALTH RESEARCH, INC., priority 2016, published 2023)
Counter-ions that a name gives are not always drawn. Like-named read-outs stand apart in the source and are kept apart here.

Columns and labels:
[1] = target: NS2B-NS3 interactions (Nluc-E66stop/GCN) (Dengue virus type 2, UniProt P29990); assay: biochemical; type: binding, DENV2
[2] = target: DENV2 His-NS2B/His-MBP-NS3 protease (Dengue virus type 2, UniProt P29990); assay: NS2B/NS3 protease inhibition assay; type: biochemical
[3] = tested on: ZIKV (Puerto Rico strain PRVABC59); assay: Viral titer reduction assay in A549 cells, ZIKV; type: cell-based, Zika virus; conditions: for titer of ZIKV in the absence of light exposure: in dark
JEV = assay: microbe, parasite or virus in culture; type: cell-based, Japanese encephalitis virus
[4] = target: refolded His-NS3 protease domain (Dengue virus type 2, UniProt P29990); assay: Surface plasmon resonance (SPR); type: binding
DENV2 [5] = tested on: DENV2
DENV2 [6] = assay: microbe, parasite or virus in culture; conditions: Dengue virus
[7] = Cytotoxicity, MTT or WST-8 cell proliferation assay; conditions: human, A549 cells
A549 cells = assay: as above
WNV = assay: microbe, parasite or virus in culture; type: cell-based, West Nile virus
YFV = assay: microbe, parasite or virus in culture; type: cell-based, yellow fever virus
ZIKV = assay: Time-of-addition experiment in infected A549 cells; type: cell-based, Zika virus; conditions: for effectiveness of addition at 24-hour post-infection versus at the time of infection: temoporfin 90 nM, niclosamide 0.75 μM, viral plaque reduction assay; for virus reduction: titers at 48 h, no ambient light
DENV2 His-MBP-NS3 = DENV2 His-MBP-NS3 (Dengue virus type 2, UniProt P29990); assay: Protein thermal shift assay (PTSA); type: binding; conditions: compound 4.8 μM, protein 2.5 μM
Procedure: PTSA was conducted using an Applied Biosystem 7500 Fast Real-Time PCR System (ThermoFisher Scientific) from 25 to 80° C. The DENV2 His-MBP-NS3 (final concentration of 2.5 μM in 1× PBS) was mixed with each compound to attain a 4.8 μM final concentration in 1.6% DMSO in the MicroAmp® Fast Optical 96-Well Reaction Plate (ThermoFisher Scientific). Thermal denaturation was monitored using SYPRO Orange (Life Technologies) according to manufacturer's manual. The denaturation of the proteins was monitored by following the increase of the fluorescence emitted by the probe that binds exposed hydrophobic regions of the denatured protein. The melting temperature (Tm) was calculated as the mid-log of the transition phase from the native to the denatured protein, using a Derivative model using the Protein Thermal Shift™ Software v1.0 (ThermoFisher Scientific). The reference unfolding temperature of proteins in 1.6% DMSO (Tm-DMSO) was subtracted from the values in the presence of each compounds (Tm-comp) to obtain thermal shifts, ΔTm=Tm-comp−Tm-DMSO. Compounds were considered to be binders when ΔTm>0.5° C.

[8] = target: ZIKV GST-NS3 protease domain / FLAG-tagged ZIKV NS2B (Zika virus, UniProt Q32ZE1); assay: Competitive GST pull-down assay; type: binding; conditions: pre-incubation with GST-NS3 beads; dose-dependent
Procedure: GST-NS3 or the GST-tag (10 μg) was immobilized on Glutathione sepharose-4B affinity beads (GE HealthCare). FLAG-tagged NS2B (10 μg) was incubated with the beads for 2 hours, and subjected to WB, using anti-FLAG (Genscript) and anti-GST antibodies (GE Healthcare). […] The assay was performed the same as in FIG. 32A, except that 2-fold dilution series of drugs were incubated with the GST-NS3 beads overnight prior to incubation with the FLAG-NS2B. […] The binding of NS2B to NS3 in the absence of each drag (DMSO control) was set as 100%. The relative binding of NS2B to NS3 in the presence of each drug was normalized to the DMSO control.

ZIKV NS3 expression = assay: Western blot of viral protein expression; type: cell-based; conditions: 48 hrs; dose-dependent
Procedure: The ability of compounds to inhibit viral protein expression was also tested by WB, using GTX133309 ZIKV α-NS3 antibody (GeneTex, Inc.).
Lower panel, NS3 expression normalized to the GAPDH loading control.

SLEV = type: cell-based, St. Louis encephalitis virus; conditions: without ambient light (in dark)
POWV = type: cell-based, Powassan virus; conditions: without ambient light (in dark)
ZIKV strain GZ01/2016 = assay: Viremia model in immunocompetent Balb/C mice; type: in vivo; conditions: 0.02 mg/mice ip daily for 2 days; RT-qPCR on day 2 post-infection
Procedure: Viremia on day 2 post-infection (pi) was determined by RT-qPCR, and statistical analysis was performed using the unpaired, two-tailed t-test.

ZIKV GZ01/2016 strain = assay: Lethal A129 mice model; type: in vivo; conditions: 1 mg/kg ip daily for 5 days
Text: For the lethal A129 mice model, a group of four-week old A129 mice were infected intraperitoneally (ip) with 2×10^5 PFU of ZIKV GZ01/2016 strain. […] Mice were observed daily for signs of illness and mortality. Survival curves were compared using the Log-rank test. All the ZIKV-infected animals treated with vehicle died with typical neurological symptoms including hind limb weakness and paralysis (FIG. 31B). […] Viremia was detected by RT-qPCR on day 2 post-ZIKV infection in three-week old Balb/C mice.

ZIKV strain GZ01 = conditions: ZIKV strain GZ01, Vero cells, RT-qPCR
[9] = Table 1, read-out: NS2B-MBP NS3 protease IC50
[10] = Japanese encephalitis virus, A549, JEV
[11] = 25° C., 1:1 Langmuir binding model, read-out: dissociation constant (KD)
[12] = DENV2, A549, read-out: EC50 (DENV2)
[13] = NS2B-NS3 SLC signal, read-out: SLC IC50
[14] = ZIKV*, without ambient light (in dark)
[15] = JEV*, without ambient light (in dark)

Sequence of DENV2 His-NS2B/His-MBP-NS3 protease (P29990 1476-1660 limits assumed): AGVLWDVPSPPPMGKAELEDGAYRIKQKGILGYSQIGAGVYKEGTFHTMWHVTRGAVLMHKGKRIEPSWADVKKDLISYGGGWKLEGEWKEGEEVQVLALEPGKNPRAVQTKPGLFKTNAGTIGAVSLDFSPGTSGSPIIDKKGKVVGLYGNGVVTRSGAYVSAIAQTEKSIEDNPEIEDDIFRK
Sequence of NS2B-NS3 interactions (Nluc-E66stop/GCN) (P29990 1476-1660 limits assumed): as above
Sequence of refolded His-NS3 protease domain (P29990 1476-1653 limits assumed): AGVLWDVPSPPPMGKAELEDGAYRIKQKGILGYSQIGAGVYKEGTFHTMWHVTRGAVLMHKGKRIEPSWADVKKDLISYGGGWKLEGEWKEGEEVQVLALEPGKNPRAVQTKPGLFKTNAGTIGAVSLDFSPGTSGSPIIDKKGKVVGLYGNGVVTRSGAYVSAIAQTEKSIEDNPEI
Sequence of DENV2 His-MBP-NS3 (P29990 1476-1660 limits assumed): as the sequence (P29990 1476-1660 limits assumed) above
Sequence of ZIKV GST-NS3 protease domain / FLAG-tagged ZIKV NS2B (Q32ZE1 1499-1676): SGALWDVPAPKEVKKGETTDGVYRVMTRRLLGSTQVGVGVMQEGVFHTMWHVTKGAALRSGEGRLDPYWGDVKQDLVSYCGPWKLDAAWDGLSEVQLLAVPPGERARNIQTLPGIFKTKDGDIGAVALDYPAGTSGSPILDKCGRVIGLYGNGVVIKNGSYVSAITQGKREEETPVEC

## Oc1ccc(C=Cc2cc(O)cc(O)c2)cc1 [Resveratrol]
[1]
  IC50: 9000 nM

## CC(=O)Oc1ccccc1C(=O)Nc1ncc([N+](=O)[O-])s1 [Nitazoxanide, [2-[(5-nitro-1,3-thiazol-2-yl)carbamoyl]phenyl]acetate]
[1]
  IC50: 3400 nM
[2]; [9]
  IC50: 15900 nM
[2]; Table 3, read-out: IC50-pro
  IC50: 15900 ± 900 nM
[3]; Zika virus, A549, ZIKV
  EC50: 1480 ± 180 nM
  EC90: 4000 nM
JEV; [10]
  EC50: 390 nM
[4]; [11]
  Kd: 7300 nM
DENV2 [5]; DENV2, Table 1
  Therapeutic index (TI) (CC50/EC50): >0
DENV2 [6]; [12]
  EC50: < 10000 nM
[7]; CC50, A549 cells, Table 1
  CC50 at 42 h: > 100000 nM
[7]; CC50, Table 3
  CC50 at 42 h: 77000 ± 7200 nM
A549 cells; Table 3
  CC50: 60000 nM

## CNC(=O)c1ccccc1Sc1ccc2c(/C=C/c3ccccn3)n[nH]c2c1 [Axitinib]
[1]
  IC50: 5300 nM

## O=C(Nc1ncc([N+](=O)[O-])s1)c1cccs1 [Tenonitrozole]
[1]
  IC50: 4900 nM

## O=C(Nc1ccc([N+](=O)[O-])cc1Cl)c1cc(Cl)ccc1O [Niclosamide, 5-chloro-N-(2-chloro-4-nitrophenyl)-2-hydroxybenzamide]
[1]
  IC50: 700 nM
[2]; [9]
  IC50: 12300 nM
[2]; Table 3, read-out: IC50-pro
  IC50: 12300 ± 600 nM
[3]; Zika virus, A549, ZIKV
  EC50: 480 ± 60 nM
  EC90: 1900 nM
WNV; West Nile virus, A549, WNV
  EC90: 2300 nM
WNV; West Nile virus, A549, WNV, read-out: EC50
  EC50: 540 ± 170 nM
JEV; [10]
  EC50: 1020 ± 80 nM
  EC90: 2400 nM
YFV; Yellow fever virus, A549
  EC50: 840 ± 20 nM
  EC90: 1900 nM
ZIKV
  effectiveness of addition at 24-hour post-infection versus at the time of infection: almost equally effective
[4]
  Kd: 6400 nM
DENV2 His-MBP-NS3
  Tm compared to the DMSO control: increased Tm
[8]
  binding of FLAG-NS2B to GST-NS3: significantly decreased the binding
ZIKV NS3 expression
  expression of ZIKV NS3 (western blot): significantly inhibited
DENV2 [5]; DENV2, Table 1
  Therapeutic index (TI) (CC50/EC50): >182
DENV2 [6]; DENV2, A549
  EC50: 550 ± 50 nM
  EC90: 2300 nM
DENV2 [6]; [12]
  EC50: 550 nM

## CC(C)Oc1ccc2c(=O)c(-c3ccccc3)coc2c1 [Ipriflavone]
[1]
  IC50: 5300 nM

## COc1ccc2nc(NC(=O)Nc3ccccc3)sc2c1 [Frentizole]
[1]
  IC50: 380 nM

## Nc1ccc(N=Nc2ccccc2)cc1 [4-Aminoazobenzene]
[1]
  IC50: 12600 nM

## Clc1ccccc1-c1nc(-c2ccncc2)no1 [Pifexole]
[1]
  IC50: 7500 nM

## Amlenasox
[1]; [13]
  IC50: 4700 nM

## O=C(O)c1cccc(-c2noc(-c3ccccc3F)n2)c1 [Ataluren]
[1]
  IC50: 100 nM
[2]; [9]
  IC50: 21600 nM
DENV2 [5]; DENV2, Table 1
  Therapeutic index (TI) (CC50/EC50): >50
DENV2 [6]; [12]
  EC50: < 2000 nM
[7]; CC50, A549 cells, Table 1
  CC50 at 42 h: > 100000 nM

## Cc1ccc(O)c(-n2nc3ccccc3n2)c1 [2-(2H-Benzotriazol-2-yl)-4 methylphenol]
[1]
  IC50: 7800 nM

## 3-[10,15,20-tris(3-hydroxyphenyl)-2,3,22,24-tetrahydroporphyrin-5-yl]phenol [Temoporfin]
[1]; [13]
  IC50: 11200 nM
[2]; [9]
  IC50: 760 nM
[2]; Table 3, read-out: IC50-pro
  IC50: 1100 ± 100 nM
[2]; compound at 1.5 μM, 50 nM MBP-NS3, 1 μM His-NS2B, Abz substrate
  Vmax of the His-NS2B/MBP-NS3 hetero protease complex, % of the DMSO control: 57%
[2]; compound at 1.5 μM, Abz substrate
  Km versus DMSO control: similar
[3]; ZIKV
  EC50: 24 ± 3 nM
  EC90: 130 nM
[3]; [14]
  EC50: 22 ± 2 nM
  EC90: 120 nM
[3]
  titer of ZIKV in the absence of light exposure: significantly reduced the titer
WNV; WNV*, without ambient light (in dark)
  EC90: 30 nM
WNV; WNV*, without ambient light (in dark), read-out: EC50
  EC50: 10 ± 1 nM
JEV; [15]
  EC50: 11 ± 1 nM
  EC90: 25 nM
YFV; YFV*, without ambient light (in dark), read-out: EC50
  EC50: 6 ± 1 nM
YFV; YFV*, without ambient light (in dark), read-out: EC90
  EC90: 15 nM
SLEV
  EC50: 8 ± 1 nM
  EC90: 25 nM
POWV
  EC50: 10 ± 1 nM
  EC90: 32 nM
ZIKV; 90 nM added at 0 hours postinfection
  virus reduction: 92.3%
ZIKV; 90 nM added at 1 hour postinfection
  virus reduction: 92%
ZIKV; 90 nM added at 3 hours postinfection
  virus reduction: 90.5%
ZIKV; 90 nM added at 22 hours postinfection
  virus reduction: 86.5%
ZIKV
  effectiveness of addition at 24-hour post-infection versus at the time of infection: almost equally effective
ZIKV strain GZ01/2016
  reduction in ZIKV-induced viremia compared to the vehicle control: about 100 fold
ZIKV GZ01/2016 strain
  infected animals protected (survival): 83%
[4]; [11]
  Kd: 400 nM
DENV2 His-MBP-NS3
  Tm compared to the DMSO control: increased Tm
[8]
  binding of FLAG-NS2B to GST-NS3: significantly decreased the binding
ZIKV NS3 expression
  expression of ZIKV NS3 (western blot): significantly inhibited
DENV2 [5]; DENV2, Table 3
  EC50: 20 ± 3 nM
  EC90: 110 nM
DENV2 [5]; read-out: EC50 (DENV2), Table 1
  EC50: 73 nM
A549 cells; A549 cells, Table 1
  CC50: 40700 nM
A549 cells; Table 3
  CC50: 40700 ± 700 nM
ZIKV strain GZ01
  EC50 value: 0.1 µg/mL

## CS(=O)(=O)c1ccc(-c2cn3ccccc3n2)cc1 [Zolimidine]
[1]
  IC50: 12100 nM

## O=c1c(-c2ccc(O)cc2)coc2cc(O)cc(O)c12 [Genistein]
[1]
  IC50: 7200 nM

## CCN(CC)c1ccc(C(=C2C=CC(=[N+](CC)CC)C=C2)c2cc(S(=O)(=O)O)ccc2S(=O)(=O)[O-])cc1 [Isosulfan blue]
[1]; [13]
  IC50: 12200 nM

## Nc1ccc(/N=N/c2ccccc2)c(N)n1 [Phenazopyridine hydrochloride]
[1]
  IC50: 13200 nM

## CC(C)CCOC(=O)c1ccc(N(C)C)cc1 [Padimate]
[1]; [13]
  IC50: 14400 nM

## Cc1cc2nc3ccc(N(C)C)cc3[s+]c2cc1N [Toluidine blue]
[1]; [13]
  IC50: 14300 nM

## c1ccc(CCNc2nc(-c3ccccc3)cs2)cc1 [Fanetizole]
[1]
  IC50: 12400 nM

## CN(C)c1ccc2nc3ccc(=[N+](C)C)cc-3sc2c1 [Methylene blue, [7-(dimethylamino)phenothiazin-3-ylidene]-dimethylazanium;chloride]
[1]
  IC50: 5500 nM
[2]; [9]
  IC50: 41600 nM
[2]; Table 3, read-out: IC50-pro
  IC50: 40000 nM
[3]; Zika virus, A549, ZIKV*, without ambient light (in dark)
  EC50: 280 nM
[3]
  titer of ZIKV in the absence of light exposure: significantly reduced the titer
WNV; West Nile virus, A549
  EC50: 100 nM
DENV2 [6]; [12]
  EC50: < 2000 nM
